Test results reported in patent publication US20030026786A1, “CHONDROGENIC DIFFERENTIATION OF HUMAN MESENCHYMAL STEM CELLS” (priority 1999, published 2003).
“Also recorded” adds a separate entry of the source.

Columns and labels:
[1] = test system: human mesenchymal stem cells (hMSCs); experiment: hMSC pellet culture in chondrogenic medium with low or high sugar concentration (pellet size, type II collagen immunostaining, toluidine blue); assay type: cell-based; details: low-glucose medium supplemented with 3.5 g/l fructose; compared with high-glucose medium (4.5 g/l glucose)
Experimental: The hMSCs in pellet culture that are undergoing chondrogenic differentiation express the extracellular matrix proteoglycans mentioned above. […] In FIG. 1, the increase in the size of the cell pellet is evident when the medium contains “high glucose”. Changes in the size of hMSC pellets reflect the extent of synthesis of extracellular matrix components. Each pellet was formed by transferring an aliquot of 200,000 cells into ½ ml chondrogenic medium with 1 g/l (5.5 mM) glucose (left) or 4.5 g/l (25 mM) glucose ( right). The chondrogenic medium consisted of DMEM with the stated concentration of glucose and the following supplements: 100 nM dexamethasone, 10 ng/ml Transforming Growth Factor)β, 1 mM sodium pyruvate, 5 μg/ml ascorbic acid-2-phosphate, and 40 μg/ml proline. A 1:99 dilution of “ITS+” supplied 6.25 μg/ml bovine insulin, 6.25 μg/ml transferrin, […], 5.33 μg/ml linoleic acid, and 1.25 mg/ml bovine serum albumin. Final concentrations of 100 U/ml penicillin, 100 μg/ml streptomycin, and 250 ng/ml amphotericin B were supplied by a 1:99 dilution of a concentrated antibiotic solution. The cells and medium were placed into a 15 ml polypropylene conical-bottom centrifuge tube, and gently centrifuged (500× g for 5 min.), after which the tubes with loosened caps were placed in a humidified 5% CO2 incubator at 37 C. […]

hMSCs in pellet culture = experiment: Induction of hypertrophy in hMSC pellet culture by sequential treatment with two media; assay type: cell-based, human; details: for inducing hypertrophy: other preliminary experiments
[2] = test system: Human bone marrow-derived mesenchymal stem cells; experiment: Chondrogenic differentiation of MSC pellets with TGF-β1 or TGF-β3 (toluidine blue, collagen and COMP immunostaining); assay type: cell-based; details: 10 ng/ml
Experimental: Human bone marrow-derived mesenchymal stem cells were cultured under standard conditions in the presence of 10% FBS until confluent. The cells were trypsinized, washed twice with chondrogenic medium, and resuspended at a density of 200,000 cells/ml in 15 ml polypropylene tubes in chondrogenic medium containing either 10 ng/ml TGF-01, TGF-β3 or neither of these. […] Frozen sections (8 μn) were stained with Toluidine blue. They were also stained for the following using standard immunocytochemistry protocols: collagen type 11, collagen type 1, and cartilage oligomeric matrix protein (COMP).

[3] = no TGF-β3, 50 nM thyroxine, 20 mM β-glycerol phosphate, 10^−9 M dexamethasone, compared to standard chondrogenic medium for 28 days

O=C(CO)[C@@H](O)[C@H](O)[C@H](O)CO [fructose]
improvement to in vitro chondrogenic differentiation [1]: same improvement

N[C@@H](Cc1cc(I)c(Oc2ccc(O)c(I)c2)c(I)c1)C(=O)O [T3]
inducing hypertrophy (hMSCs in pellet culture): effective

TGF-β1: member of the transforming growth factor-β superfamily, known promoter of cartilage formation
type II collagen expression ([2]; 14 days): localized expression of type II collagen
type II collagen staining ([2]; 21 days in culture): staining throughout the pellet except for the perimeter
type II collagen expression ([2]; after 8 days in pellet culture): no expression of type II collagen

N[C@@H](Cc1cc(I)c(Oc2cc(I)c(O)c(I)c2)c(I)c1)C(=O)O [thyroxine]
hypertrophy (hMSCs in pellet culture; no TGF-β3, 50 nM thyroxine combined with 20 mM β-glycerol phosphate and 10^−9 M dexamethasone, from day 14 to day 28): hypertrophic differentiation of hMSCs was the predominant pathway; also recorded: more prominent
deposition of type X collagen (antibody X53) (hMSCs in pellet culture; [3]): irregular but pronounced increase
staining for type II and type IX collagens (hMSCs in pellet culture; [3]): intense staining
inducing hypertrophy (hMSCs in pellet culture): effective
hypertrophic effect (hMSCs in pellet culture; withdrawing TGF-β3 and adding 50 nM thyroxine after two weeks of chondrogenic differentiation, two additional weeks of culture): pronounced hypertrophic effect

B1: TGF-β3: transforming growth factor beta-3, chondroinductive agent (protein, UniProt P10600 301-412, looked up)
Transforming growth factor …: ALDTNYCFRNLEENCCVRPLYIDFRQDLGWKWVHEPKGYYANFCSGPCPYLRSADTTHSTVLGLYNTLNPEASASPCCVPQDLEPLTILYYVGRTPKVEQLSNMVVKSCKCS
cell morphology (hypertrophic cells) ([2]; 14 days): A large proportion of the cells were hypertrophic
pellet size ([2]; 14 days): larger in size
type II collagen expression ([2]; 14 days): expression of type II collagen throughout, except for a central area
COMP staining ([2]; 21 days in culture): reduced pericellular staining and increased interterritorial staining
type II collagen staining ([2]; 21 days in culture): very strong staining
type II collagen expression ([2]; after 8 days in pellet culture): some cells-ex fessed type II collagen
effect on chondrogenic differentiation of human MSCs in vitro ([2]; up to 21 days): dramatic effect; also recorded: more pronounced
